Data: patent US7491794B2, “Macrocyclic compounds as inhibitors of viral replication” (Intermune, Inc., priority 2003, dated 2009)
Read-outs that look alike come from different tables or passages of the source.

Assays:
NS3-NS4A protease = molecular target: T1, NS3-NS4A protease (Hepatitis C virus genotype 1a, UniProt P27958); assay: NS3-NS4A protease assay (NS3 inhibition assay, RETS1 substrate), Section B; format: biochemical; conditions: read-out: NS3-NS4A IC50
T1 construct: Recombinant E. coli or Baculovirus full-length NS3 was diluted to 3.33 μM with assay buffer; made in house; host or cells: E. coli or baculovirus (BV) system
T1 sequence (P27958 1027-1657): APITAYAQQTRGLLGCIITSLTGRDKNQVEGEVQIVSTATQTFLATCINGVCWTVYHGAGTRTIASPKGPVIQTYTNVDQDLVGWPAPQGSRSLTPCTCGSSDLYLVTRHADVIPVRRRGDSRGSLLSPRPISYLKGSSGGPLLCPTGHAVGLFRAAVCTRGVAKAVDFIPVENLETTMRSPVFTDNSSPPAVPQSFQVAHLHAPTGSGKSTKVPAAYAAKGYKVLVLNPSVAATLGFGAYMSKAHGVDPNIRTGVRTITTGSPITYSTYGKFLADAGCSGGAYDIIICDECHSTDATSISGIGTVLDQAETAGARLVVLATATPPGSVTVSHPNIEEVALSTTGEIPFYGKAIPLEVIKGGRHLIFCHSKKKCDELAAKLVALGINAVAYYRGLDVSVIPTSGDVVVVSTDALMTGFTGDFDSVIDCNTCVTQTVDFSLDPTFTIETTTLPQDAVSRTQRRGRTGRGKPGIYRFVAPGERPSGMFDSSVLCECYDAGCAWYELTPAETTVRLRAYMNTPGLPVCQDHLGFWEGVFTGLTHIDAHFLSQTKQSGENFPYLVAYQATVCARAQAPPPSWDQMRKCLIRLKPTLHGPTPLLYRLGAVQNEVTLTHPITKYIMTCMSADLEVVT
Procedure, shortened: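 Kinetic fluorescence read (335 nm excitation, 495 nm emission, 30 min) of RETS1 cleavage by NS3/NS4A-2 complex, 2 nM E. coli or 3 nM baculovirus NS3, after 10 min room-temperature compound pre-incubation. Four-parameter-fit IC50s converted to Ki by Cheng–Prusoff, Ki=IC50/(1+[S]/Km).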

[1] = tested on: HCV sub-genomic replicon, GS4.3; assay: Quantitation by ELISA of NPTII in the HCV sub-genomic replicon, GS4.3, Section B; format: cell-based; conditions: Hepatitis C virus, read-out: Replicon EC50
Excerpt: Quantitation by ELISA of the Selectable Marker Protein, Neomycin Phosphotransferase II (NPTII) in the HCV Sub-Genomic Replicon, GS4.3
The HCV sub-genomic replicon (1377/NS3-3′, accession No. AJ242652), stably maintained in HuH-7 hepatoma cells, was created by Lohmann et al. Science 285: 110-113 (1999). The replicon-containing cell culture, designated GS4.3, was obtained from Dr. Christoph Seeger of the Institute for Cancer Research, Fox Chase Cancer Center, Philadelphia, Pa.
GS4.3 cells were maintained at 37° C., 5% CO2, in DMEM (Gibco 11965-092) supplemented with L-glutamine 200 mM (100×) (Gibco25030-081), non-essential amino acids (NEAA)(Biowhittaker 13-114E), heat-inactivated (HI) Fetal Bovine Serum(FBS)(Hyclone SH3007.03) and 750 μg/ml geneticin (G418)(Gibco 10131-035). Cells were sub-divided 1:3 or 4 every 2-3 days.
24 hours prior to the assay, GS4.3 cells were collected, counted, and plated in 96-well plates (Costar 3585) at 7500 cells/well in 100 μl standard maintenance medium (above) and incubated in the conditions above. To initiate the assay, culture medium was removed, cells were washed once with PBS (Gibco 10010-023) and 90 μl Assay Medium (DMEM, L-glutamine, NEAA, 10% HI FBS, no G418) was added. Inhibitors were made as a 10× stock in Assay Medium, (3-fold dilutions from 10 μM to […] final concentration, final DMSO concentration 1%), 10 μl were added to duplicate wells, plates were rocked to mix, and incubated as above for 72 h.
An NPTII ELISA kit was obtained from AGDIA, Inc. (Compound direct ELISA test system for Neomycin Phosphotransferase II, PSP 73000/4800). Manufacturer's instructions were followed, with some modifications. 10×PEB-1 lysis buffer was made up to include 500 μM PMSF (Sigma P7626, 50 mM stock in isopropanol). After 72 h incubation, cells were washed once with PBS and 150 μl PEB-1 with PMSF was added per well. Plates were agitated vigorously for 15 minutes, room temperature, then frozen at −70° C. Plates were thawed, lysates were mixed thoroughly, and 100 μl were applied to an NPTII Elisa plate. A standard curve was made. Lysate from DMSO-treated control cells was pooled, serially diluted with PEB-1 with PMSF, and applied to duplicate wells of the ELISA plate, in a range of initial lysate amount of 150u1-2.5 ul. In addition, 100 μl buffer alone was applied in duplicate as a blank. Plates were sealed and gently agitated at room temperature for 2 h. Following capture incubation, the plates were washed 5×300 μl with PBS-T (0.5% Tween-20, PBS-T was supplied in the ELISA kit). For detection, a 1× dilution of enzyme conjugate diluent MRS-2 (5×) was made in PBS-T, into which 1:100 dilutions of enzyme conjugates A and B were added, as per instructions. Plates were resealed, and incubated with agitation, covered, room temperature, for 2 h. The washing was then repeated and 100 μl of room temperature TMB substrate was added. After approximately 30 minutes incubation (room temperature, agitation, covered), the reaction was stopped with 50 μl 3M sulfuric acid. Plates were read at 450 nm on a Molecular Devices Versamax plate reader.
Inhibitor effect was expressed as a percentage of DMSO-treated control signal, and inhibition curves were calculated using a 4-parameter equation: y=A+((B−A)/(1+((C/x)^D))), where C is half-maximal activity or EC50.

`O=C(NC1CCCC1)N[C@H]1CCCCC/C=C\[C@@H]2C[C@@]2(C(=O)NS(=O)(=O)C2CC2)NC(=O)[C@@H]2C[C@@H](OC(=O)N3CCc4c(F)cccc4C3)CN2C1=O` [AR00304080, (1S,4R,6S,14S,18R)-5-Fluoro-3,4-dihydro-1H-isoquinoline-2-carboxylic acid 14-(3-cyclopentyl-ureido)-4-cyclopropanesulfonylaminocarbonyl-2,15-dioxo-3,16-diaza-tricyclo[14.3.0.0^4,6]nonadec-7-en-18-yl ester] gave an IC50 (NS3-NS4A protease) of less than 100 nM and an EC50 ([1]; GS4.3 cells, 72 h incubation) of less than 100 nM.
For `COc1ccc(CC(=O)N[C@H]2CCCCC/C=C\[C@@H]3C[C@@]3(C(=O)NS(=O)(=O)C3CC3)NC(=O)[C@@H]3C[C@@H](OC(=O)N4Cc5cccc(F)c5C4)CN3C2=O)cc1` [AR00340156, (1S,4R,6S,14S,18R)-4-Fluoro-1,3-dihydro-isoindole-2-carboxylic acid 4-cyclopropanesulfonylaminocarbonyl-14-[2-(4-methoxy-phenyl)-acetylamino]-2,15-dioxo-3,16-diaza-tricyclo[14.3.0.0^4,6]nonadec-7-en-18-yl ester], the IC50 (NS3-NS4A protease) was less than 100 nM and the EC50 ([1]; GS4.3 cells, 72 h incubation) was less than 1000 nM.
For `C[C@@H]1CN(C(=O)O[C@@H]2C[C@H]3C(=O)N[C@]4(C(=O)NS(=O)(=O)C5CC5)C[C@H]4/C=C\CCCCC[C@H](NC(=O)OC(C)(C)C)C(=O)N3C2)Cc2ccccc21` [AR00333463, (1S,4R,6S,14S,18R)-4S-Methyl-3,4-dihydro-1H-isoquinoline-2-carboxylic acid 14-tert-butoxycarbonylamino-4-cyclopropanesulfonylaminocarbonyl-2,15-dioxo-3,16-diaza-tricyclo[14.3.0.0^4,6]nonadec-7-en-18-yl ester], the IC50 (NS3-NS4A protease) was less than 100 nM and the EC50 ([1]; GS4.3 cells, 72 h incubation) was less than 100 nM.
In the case of `C[C@@H]1CN(C(=O)O[C@@H]2C[C@H]3C(=O)N[C@]4(C(=O)O)C[C@H]4/C=C\CCCCC[C@H](NC(=O)OC(C)(C)C)C(=O)N3C2)Cc2ccccc21` [AR00320123, (1S,4R,6S,14S,18R)-14-tert-Butoxycarbonylamino-18-(4S-methyl-3,4-dihydro-1H-isoquinoline-2-carbonyloxy)-2,15-dioxo-3,16-diaza-tricyclo[14.3.0.0^4,6]nonadec-7-ene-4-carboxylic acid], the IC50 (NS3-NS4A protease) is reported as less than 1000 nM and the EC50 ([1]; GS4.3 cells, 72 h incubation) is reported as less than 10000 nM.
`CC(C)(C)NC(=O)N[C@H]1CCCCC/C=C\[C@@H]2C[C@@]2(C(=O)O)NC(=O)[C@@H]2C[C@@H](OC(=O)N3Cc4cc(Cl)c(Cl)cc4C3)CN2C1=O` [AR00320450, (1S,4R,6S,14S,18R)-14-(3-tert-Butyl-ureido)-18-(5,6-dichloro-1,3-dihydro-isoindole-2-carbonyloxy)-2,15-dioxo-3,16-diaza-tricyclo[14.3.0.0^4,6]nonadec-7-ene-4-carboxylic acid] showed an IC50 (NS3-NS4A protease) of less than 1000 nM and an EC50 ([1]; GS4.3 cells, 72 h incubation) of less than 10000 nM.
For `CC(C)(C)OC(=O)N[C@H]1CCCCC/C=C\[C@@H]2C[C@@]2(C(=O)NS(=O)(=O)c2ccccc2)NC(=O)[C@@H]2C[C@@H](OC(=O)N3Cc4ccccc4C3)CN2C1=O` [AR00333802, (1S,4R,6S,14S,18R)-1,3-Dihydro-isoindole-2-carboxylic acid 4-benzenesulfonylaminocarbonyl-14-tert-butoxycarbonylamino-2,15-dioxo-3,16-diaza-tricyclo[14.3.0.0^4,6]nonadec-7-en-18-yl ester], the IC50 (NS3-NS4A protease) was less than 100 nM and the EC50 ([1]; GS4.3 cells, 72 h incubation) was less than 100 nM.
`CC(C)(C)OC(=O)N[C@H]1CCCCC/C=C\[C@@H]2C[C@@]2(C(=O)NS(=O)(=O)C(F)(F)F)NC(=O)[C@@H]2C[C@@H](OC(=O)N3Cc4ccccc4C3)CN2C1=O` [AR00340479, (1S,4R,6S,14S,18R)-1,3-Dihydro-isoindole-2-carboxylic acid 14-tert-butoxycarbonylamino-2,15-dioxo-4-trifluoromethanesulfonylaminocarbonyl-3,16-diaza-tricyclo[14.3.0.0^4,6]nonadec-7-en-18-yl ester] was tested, and the IC50 (NS3-NS4A protease) was less than 100 nM and the EC50 ([1]; GS4.3 cells, 72 h incubation) was less than 100 nM.
`CC(C)(C)OC(=O)N[C@H]1CCCCC/C=C\[C@@H]2C[C@@]2(C(=O)NS(=O)(=O)c2ccccc2)NC(=O)[C@@H]2C[C@@H](OC(=O)N3CCc4ccccc4C3)CN2C1=O` [AR00320547, (1S,4R,6S,14S,18R)-3,4-Dihydro-1H-isoquinoline-2-carboxylic acid 4-benzenesulfonylaminocarbonyl-14-tert-butoxycarbonylamino-2,15-dioxo-3,16-diaza-tricyclo[14.3.0.0^4,6]nonadec-7-en-18-yl ester] showed an IC50 (NS3-NS4A protease) of less than 100 nM and an EC50 ([1]; GS4.3 cells, 72 h incubation) of less than 100 nM.
`CC(C)(C)OC(=O)N[C@H]1CCCCC/C=C\[C@@H]2C[C@@]2(C(=O)NS(=O)(=O)c2ccc(C#N)cc2)NC(=O)[C@@H]2C[C@@H](OC(=O)N3Cc4ccccc4C3)CN2C1=O` [AR00334248, (1S,4R,6S,14S,18R)-1,3-Dihydro-isoindole-2-carboxylic acid 14-tert-butoxycarbonylamino-4-(4-cyano-benzenesulfonylaminocarbonyl)-2,15-dioxo-3,16-diaza-tricyclo[14.3.0.0^4,6]nonadec-7-en-18-yl ester] was tested, and the IC50 (NS3-NS4A protease) was less than 100 nM and the EC50 ([1]; GS4.3 cells, 72 h incubation) was less than 1000 nM.
In the case of `CC(C)(C)OC(=O)N[C@H]1CCCCC/C=C\[C@@H]2C[C@@]2(C(=O)NS(=O)(=O)c2ccc(Cl)cc2)NC(=O)[C@@H]2C[C@@H](OC(=O)N3Cc4ccccc4C3)CN2C1=O` [AR00334250, (1S,4R,6S,14S,18R)-1,3-Dihydro-isoindole-2-carboxylic acid 14-tert-butoxycarbonylamino-4-(4-chloro-benzenesulfonylaminocarbonyl)-2,15-dioxo-3,16-diaza-tricyclo[14.3.0.0^4,6]nonadec-7-en-18-yl ester], the IC50 (NS3-NS4A protease) is reported as less than 100 nM and the EC50 ([1]; GS4.3 cells, 72 h incubation) is reported as less than 100 nM.
Work on `O=C(N[C@H]1CCCCC/C=C\[C@@H]2C[C@@]2(C(=O)NS(=O)(=O)C2CC2)NC(=O)[C@@H]2C[C@@H](OC(=O)N3Cc4ccccc4C3)CN2C1=O)OC1CCOCC1` [AR00320081, (1S,4R,6S,14S,18R)-1,3-Dihydro-isoindole-2-carboxylic acid 4-cyclopropanesulfonylaminocarbonyl-2,15-dioxo-14-(tetrahydro-pyran-4-yloxycarbonylamino)-3,16-diaza-tricyclo[14.3.0.0^4,6]nonadec-7-en-18-yl ester] yielded an IC50 (NS3-NS4A protease) of less than 100 nM and an EC50 ([1]; GS4.3 cells, 72 h incubation) of less than 100 nM.
`CCCCS(=O)(=O)NC(=O)[C@@]12C[C@H]1/C=C\CCCCC[C@H](NC(=O)OC(C)(C)C)C(=O)N1C[C@H](OC(=O)N3CCc4ccccc4C3)C[C@H]1C(=O)N2` [AR00261409, (1S,4R,6S,14S,18R)-3,4-Dihydro-1H-isoquinoline-2-carboxylic acid 4-(butane-1-sulfonylaminocarbonyl)-14-tert-butoxycarbonylamino-2,15-dioxo-3,16-diaza-tricyclo[14.3.0.0^4,6]nonadec-7-en-18-yl ester] gave an IC50 (NS3-NS4A protease) of less than 100 nM and an EC50 ([1]; 72 h) of less than 10000 nM.
`CC(C)(C)OC(=O)N[C@H]1CCCCC/C=C\[C@@H]2C[C@@]2(C(=O)O)NC(=O)[C@@H]2C[C@@H](OC(=O)N3Cc4ccc(Cl)cc4C3)CN2C1=O` [AR00315998, (1S,4R,6S,14S,18R)-14-tert-Butoxycarbonylamino-18-(5-chloro-1,3-dihydro-isoindole-2-carbonyloxy)-2,15-dioxo-3,16-diaza-tricyclo[14.3.0.0^4,6]nonadec-7-ene-4-carboxylic acid] was tested, and the IC50 (NS3-NS4A protease) was less than 1000 nM and the EC50 ([1]; GS4.3 cells, 72 h incubation) was less than 10000 nM.
